From ChEMBL document CHEMBL1201862, “PubChem BioAssay data set” (2004)
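Cultured in 96-well plates, cells were exposed to test compound for 48 hours across five concentrations. At the GI50, growth is halved.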 The source made the active and inactive calls. No stated cut-off is given here; in the data, active = GI50 up to about 1.1 µM and inactive = higher.

Legend:
Assay in all cases: NCI anticancer screen, dose series, 48 h
[1] = test system: 786-0
[2] = test system: ACHN
[3] = test system: DLD-1
[4] = test system: DMS-273
[5] = test system: HCT-15
[6] = test system: HT-29
[7] = test system: KM12
[8] = test system: LXFL 529
[9] = test system: M19-MEL
[10] = test system: NCI-H460
[11] = test system: OVCAR-5
[12] = test system: RXF 393
[13] = test system: SF-539
[14] = test system: SK-MEL-2
[15] = test system: SN12C
[16] = test system: SNB-19

Row | Structure (SMILES) | GI50 [1] | GI50 [2] | GI50 [3] | GI50 [4] | GI50 [5] [µM] | GI50 [6] | GI50 [7] | GI50 [8] | GI50 [9] | GI50 [10] | GI50 [11] | GI50 [12] | GI50 [13] | GI50 [14] | GI50 [15] | GI50 [16]
1 | C/C(CC(=O)NC1=CC=C(NC(=O)C/C(C)=N\Nc2ccccc2)CC1)=N/Nc1ccccc1 | > 100 µM (inactive) | > 100 µM (inactive) | > 100 µM (inactive) | 27 µM (inactive) | 29.7 | > 100 µM (inactive) | > 100 µM (inactive) | > 100 µM (inactive) | > 100 µM (inactive) | > 100 µM (inactive) | > 100 µM (inactive) | > 100 µM (inactive) | > 100 µM (inactive) | > 100 µM (inactive) | > 100 µM (inactive) | > 100 µM (inactive)
2 | CCN(CC)c1cccc2c1C1(O)CCC3(CC21)OCCCCO3 (stereo unspecified) | 74 µM (inactive) | 91.8 µM (inactive) | 57.1 µM (inactive) | > 100 µM (inactive) | 66.8 | 33.3 µM (inactive) | 57.8 µM (inactive) | > 100 µM (inactive) | 91.4 µM (inactive) | 53.2 µM (inactive) | > 100 µM (inactive) | 15.3 µM (inactive) | 35.3 µM (inactive) | > 100 µM (inactive) | 74.1 µM (inactive) | 18 µM (inactive)
3 | O=C(/C=C/c1ccccc1)NC1C=Nc2ccc([N+](=O)[O-])cc2NC1=O (stereo unspecified) | > 100 µM (inactive) | 26.2 µM (inactive) | > 100 µM (inactive) | 21.6 µM (inactive) | 23.2 | 73.1 µM (inactive) | 18.1 µM (inactive) | 34.7 µM (inactive) | 38.4 µM (inactive) | > 100 µM (inactive) | 71.9 µM (inactive) | > 100 µM (inactive) | > 100 µM (inactive) | 25.7 µM (inactive) | > 100 µM (inactive) | > 100 µM (inactive)
4 | C=C[C@]1(C)CCC2=C(CCC3C2(C)CCC[C@]3(C)CO)C1 (stereo partly specified) | 59.8 µM (inactive) | 69.2 µM (inactive) | 50 µM (inactive) | 41.8 µM (inactive) | 33 | 24.1 µM (inactive) | 38.4 µM (inactive) | 56.1 µM (inactive) | 43.5 µM (inactive) | 35.1 µM (inactive) | > 100 µM (inactive) | 25.8 µM (inactive) | > 100 µM (inactive) | 45.9 µM (inactive) | 20.2 µM (inactive) | > 100 µM (inactive)
5 | N#CCc1ccc(C(C#N)/C(CCCC(=O)Nc2cccc([N+](=O)[O-])c2)=N\NC(=O)NN)cc1 (stereo unspecified) | > 100 µM (inactive) | > 100 µM (inactive) | > 100 µM (inactive) | > 100 µM (inactive) | > 100 | > 100 µM (inactive) | > 100 µM (inactive) | > 100 µM (inactive) | > 100 µM (inactive) | > 100 µM (inactive) | > 100 µM (inactive) | > 100 µM (inactive) | > 100 µM (inactive) | > 100 µM (inactive) | > 100 µM (inactive) | > 100 µM (inactive)
6 | CCOC(=O)N1N=NC2C3OC(C[C@@]3(C#N)OC(C)=O)[C@H]21 (stereo partly specified) | > 100 µM (inactive) | > 100 µM (inactive) | > 100 µM (inactive) | > 100 µM (inactive) | > 100 | > 100 µM (inactive) | > 100 µM (inactive) | > 100 µM (inactive) | > 100 µM (inactive) | > 100 µM (inactive) | > 100 µM (inactive) | > 100 µM (inactive) | > 100 µM (inactive) | > 100 µM (inactive) | > 100 µM (inactive) | > 100 µM (inactive)
7 | O=C(/C=C\c1ccccc1O)c1ccc(O)cc1O | > 100 µM (inactive) | > 100 µM (inactive) | > 100 µM (inactive) | > 100 µM (inactive) | > 100 | > 100 µM (inactive) | > 100 µM (inactive) | > 100 µM (inactive) | > 100 µM (inactive) | > 100 µM (inactive) | > 100 µM (inactive) | > 100 µM (inactive) | > 100 µM (inactive) | > 100 µM (inactive) | > 100 µM (inactive) | > 100 µM (inactive)
8 | CCNC(=O)O/N=C1\CCC2[C@@H]3CC=C4C[C@@H](OC5CCCCO5)CC[C@]4(C)C3CC[C@]12C (stereo partly specified) | 2.31 µM (inactive) | 1.45 µM (inactive) | 4.45 µM (inactive) | 1.52 µM (inactive) | 1.63 | 3.16 µM (inactive) | 3.94 µM (inactive) | 1.2 µM (inactive) | 1.76 µM (inactive) | 1.93 µM (inactive) | 2.48 µM (inactive) | 2.2 µM (inactive) | 6.19 µM (inactive) | 2.2 µM (inactive) | 2.12 µM (inactive) | 0.723 µM (active)
9 | COc1cc(C(=O)NO)ccc1O | > 100 µM (inactive) | > 100 µM (inactive) | > 100 µM (inactive) | > 100 µM (inactive) | > 100 | > 100 µM (inactive) | > 100 µM (inactive) | > 100 µM (inactive) | > 100 µM (inactive) | > 100 µM (inactive) | > 100 µM (inactive) | > 100 µM (inactive) | 87.7 µM (inactive) | > 100 µM (inactive) | > 100 µM (inactive) | > 100 µM (inactive)
10 | Nc1nncc2c1c(Br)cn2C1OC(CO)C(O)C1O (stereo unspecified) | 21.1 µM (inactive) | 15.1 µM (inactive) | 4.82 µM (inactive) | 7.23 µM (inactive) | 4.23 | 8.39 µM (inactive) | 43.9 µM (inactive) | 23.7 µM (inactive) | > 100 µM (inactive) | 28.8 µM (inactive) | > 62.2 µM (inactive) | 30.8 µM (inactive) | 30.5 µM (inactive) | > 40.8 µM (inactive) | 5.3 µM (inactive) | 64.3 µM (inactive)
11 | O=C(CSc1nnc(Cc2ccccc2)o1)Nc1ccc(Cl)cc1Cl | > 100 µM (inactive) | > 100 µM (inactive) | > 100 µM (inactive) | > 100 µM (inactive) | > 100 | > 100 µM (inactive) | > 100 µM (inactive) | > 100 µM (inactive) | > 100 µM (inactive) | > 100 µM (inactive) | > 100 µM (inactive) | > 100 µM (inactive) | > 100 µM (inactive) | > 100 µM (inactive) | > 100 µM (inactive) | > 100 µM (inactive)
